According to patent US20160212997A1, “AGRICULTURAL CHEMICALS” (REDAG CROP PROTECTION LTD, priority 2013, published 2016):
Read-outs that look alike come from different tables or passages of the source.

Assays:
aphids, Myzus persicae = assay: Potter tower spray on aphids, knockdown and mortality; type: in vivo; conditions: for pest or weed control at 0.000125 % strength / pest or weed control at 0.00025 % strength / pest or weed control at 0.0005 % strength / pest or weed control at 0.001 % strength / pest or weed control at 0.002 % strength / pest or weed control at 0.003125 % strength / pest or weed control at 0.00625 % strength / pest or weed control at 0.0125 % strength / pest or weed control at 0.025 % strength / pest or weed control at 0.05 % strength: Myzus persicae, read-out: Average of % corrected affected; for pest or weed control at 0.003125 % strength: 0.003125 % w/v; for pest or weed control at 0.00625 % strength: 0.00625 % w/v; for pest or weed control at 0.0125 % strength: 0.0125 % w/v; for pest or weed control at 0.025 % strength: 0.025 % w/v; for pest or weed control at 0.05 % strength: 0.05 % w/v
Source text: The compounds were screened for insecticidal efficacy against aphids, Myzus persicae, Cabbage moth, Mamestra brassicae, diamond black moths, Plutella xylostella, red spider mites, Tetranychus urticae, whitefly, Trialeurodes vaporariorum, in terms of knockdown and mortality.
(§1) Myzus persicae, Cabbage moth, Mamestra brassicae, diamond back moths, Plutella xylostella, red spider mites, Tetranychus urticae, whitefly, Trialeurodes vaporariorum, were obtained from specified laboratory cultures. Mixed sex and age aphids and mites, moth larvae and whitefly scale infested leaves were used in the experiments. Environmental conditions were closely monitored and recorded and were within the optimal range of the target species.
(§2) The compounds were screened at a range of five concentrations, diluted in DMSO. Some of the compounds were screened against aphids, whitefly and red spider mites and other compounds were screened against cabbage moth, and diamond black moths. A carrier only and an untreated control will also be conducted. Treatments were applied directly onto the insects within Petri dishes, using a potter tower.
(§3) Twenty mites and ten aphids, scales and moth larvae were placed within a Petri dish, lined with a suitable leaf disc on a damp cotton wool pad. Scales were already on leaves. The Petri dishes were then sprayed using a potter tower. The number of knocked down and anthropods were assessed at 24 and 48 hours post treatment. Five replicates were be performed for each treatment, for each species.
(§4) For Tables 2, 4, 5 and 6, the compounds were diluted in DMSO containing 1% v/v Tween 20™. For Tables 2, 4, 5 and 6, the caterpillars were a mixture of Mamestra brassicae and Lacanobia oleracea.

[1] = system: caterpillars, a mixture of Mamestra brassicae and Lacanobia oleracea; assay: Potter tower spray on caterpillars, knockdown and mortality; type: in vivo; conditions: for pest or weed control at 0.000125 % strength / pest or weed control at 0.00025 % strength / pest or weed control at 0.0005 % strength / pest or weed control at 0.001 % strength / pest or weed control at 0.002 % strength / pest or weed control at 0.003125 % strength / pest or weed control at 0.00625 % strength / pest or weed control at 0.0125 % strength / pest or weed control at 0.025 % strength / pest or weed control at 0.05 % strength: read-out: Average of % corrected affected; for pest or weed control at 0.003125 % strength: 0.003125 % w/v; for pest or weed control at 0.00625 % strength: 0.00625 % w/v; for pest or weed control at 0.0125 % strength: 0.0125 % w/v; for pest or weed control at 0.025 % strength: 0.025 % w/v; for pest or weed control at 0.05 % strength: 0.05 % w/v
Source text: as §1, §2, §3, §4

[2] = 24 h, Aphids, 24 hours post application
[3] = 48 h, Aphids, 48 hours post application
[4] = 24 h, Caterpillars, 24 hours post application
[5] = 48 h, Caterpillars, 48 hours post application

Row | Structure (SMILES) | pest or weed control at 0.000125 % strength (aphids, Myzus persicae; 24 h) [%] | pest or weed control at 0.00025 % strength (aphids, Myzus persicae; 24 h) [%] | pest or weed control at 0.0005 % strength (aphids, Myzus persicae; 24 h) [%] | pest or weed control at 0.001 % strength (aphids, Myzus persicae; 24 h) [%] | pest or weed control at 0.002 % strength (aphids, Myzus persicae; 24 h) [%] | pest or weed control at 0.000125 % strength (aphids, Myzus persicae; 48 h) [%] | pest or weed control at 0.00025 % strength (aphids, Myzus persicae; 48 h) [%] | pest or weed control at 0.0005 % strength (aphids, Myzus persicae; 48 h) [%] | pest or weed control at 0.001 % strength (aphids, Myzus persicae; 48 h) [%] | pest or weed control at 0.002 % strength (aphids, Myzus persicae; 48 h) [%] | pest or weed control at 0.000125 % strength ([1]; 24 h) [%] | pest or weed control at 0.00025 % strength ([1]; 24 h) [%] | pest or weed control at 0.0005 % strength ([1]; 24 h) [%] | pest or weed control at 0.001 % strength ([1]; 24 h) [%] | pest or weed control at 0.002 % strength ([1]; 24 h) [%] | pest or weed control at 0.000125 % strength ([1]; 48 h) [%] | pest or weed control at 0.00025 % strength ([1]; 48 h) [%] | pest or weed control at 0.0005 % strength ([1]; 48 h) [%] | pest or weed control at 0.001 % strength ([1]; 48 h) [%] | pest or weed control at 0.002 % strength ([1]; 48 h) [%] | further results
1 | Cc1cc(C2=NCC(c3cc(Cl)cc(Cl)c3)(C(F)(F)F)O2)ccc1SCC(=O)NCC(F)(F)F (stereo not drawn) [Compound 18, 2-[4-[5-(3,5-dichlorophenyl)-5-(trifluoromethyl)-4H-oxazol-2-yl]-2-methyl-phenyl]sulfanyl-N-(2,2,2-trifluoroethyl)acetamide] |  |  |  |  |  |  |  |  |  |  |  |  |  |  |  |  |  |  |  |  | pest or weed control at 0.000125 % strength (aphids, Myzus persicae; 24 h, Aphids, 0.000125 % w/v, 24 hours post application): 1 to 19%; pest or weed control at 0.00025 % strength (aphids, Myzus persicae; 24 h, Aphids, 0.00025 % w/v, 24 hours post application): 1 to 19%; pest or weed control at 0.0005 % strength (aphids, Myzus persicae; 24 h, Aphids, 0.0005 % w/v, 24 hours post application): 1 to 19%; pest or weed control at 0.001 % strength (aphids, Myzus persicae; 24 h, Aphids, 0.001 % w/v, 24 hours post application): 1 to 19%; pest or weed control at 0.002 % strength (aphids, Myzus persicae; 24 h, Aphids, 0.002 % w/v, 24 hours post application): 1 to 19%; pest or weed control at 0.000125 % strength (aphids, Myzus persicae; 48 h, Aphids, 0.000125 % w/v, 48 hours post application): 1 to 19%; pest or weed control at 0.00025 % strength (aphids, Myzus persicae; 48 h, Aphids, 0.00025 % w/v, 48 hours post application): 1 to 19%; pest or weed control at 0.0005 % strength (aphids, Myzus persicae; 48 h, Aphids, 0.0005 % w/v, 48 hours post application): 1 to 19%; pest or weed control at 0.001 % strength (aphids, Myzus persicae; 48 h, Aphids, 0.001 % w/v, 48 hours post application): 1 to 19%; pest or weed control at 0.002 % strength (aphids, Myzus persicae; 48 h, Aphids, 0.002 % w/v, 48 hours post application): 1 to 19%; pest or weed control at 0.000125 % strength ([1]; 24 h, Caterpillars, 0.000125 % w/v, 24 hours post application): 1 to 19%; pest or weed control at 0.00025 % strength ([1]; 24 h, Caterpillars, 0.00025 % w/v, 24 hours post application): 0%; pest or weed control at 0.0005 % strength ([1]; 24 h, Caterpillars, 0.0005 % w/v, 24 hours post application): 1 to 19%; pest or weed control at 0.001 % strength ([1]; 24 h, Caterpillars, 0.001 % w/v, 24 hours post application): 1 to 19%; pest or weed control at 0.002 % strength ([1]; 24 h, Caterpillars, 0.002 % w/v, 24 hours post application): 1 to 19%; pest or weed control at 0.000125 % strength ([1]; 48 h, Caterpillars, 0.000125 % w/v, 48 hours post application): 1 to 19%; pest or weed control at 0.00025 % strength ([1]; 48 h, Caterpillars, 0.00025 % w/v, 48 hours post application): 1 to 19%; pest or weed control at 0.0005 % strength ([1]; 48 h, Caterpillars, 0.0005 % w/v, 48 hours post application): 1 to 19%; pest or weed control at 0.001 % strength ([1]; 48 h, Caterpillars, 0.001 % w/v, 48 hours post application): 1 to 19%; pest or weed control at 0.002 % strength ([1]; 48 h, Caterpillars, 0.002 % w/v, 48 hours post application): 0%
2 | O=C(CSc1ccc(C2=NOC(c3cc(Cl)cc(Cl)c3)(C(F)(F)F)C2)s1)NCC(F)(F)F (stereo not drawn) [Compound 19, 2-[[5-[5-(3,5-dichlorophenyl)-5-(trifluoromethyl)-4H-isoxazol-3-yl]-2-thienyl]sulfanyl]-N-(2,2,2-trifluoroethyl)acetamide] | 20 to 39 | 1 to 19 | 1 to 19 | 20 to 39 | 1 to 19 | 40 to 59 | 20 to 39 | 20 to 39 | 40 to 59 | 1 to 19 | 0 | 0 | 1 to 19 | 1 to 19 | 1 to 19 | 1 to 19 | 1 to 19 | 1 to 19 | 1 to 19 | 1 to 19 | 
3 | Cc1cc(C2=NOC(c3cc(Cl)cc(Cl)c3)(C(F)(F)F)C2)sc1SCC(=O)NCC(F)(F)F (stereo not drawn) [Compound 20, 2-[[5-[5-(3,5-dichlorophenyl)-5-(trifluoromethyl)-4H-isoxazol-3-yl]-3-methyl-2-thienyl]sulfanyl]-N-(2,2,2-trifluoroethyl)acetamide] | 1 to 19 | 1 to 19 | 1 to 19 | 1 to 19 | 1 to 19 | 1 to 19 | 1 to 19 | 1 to 19 | 1 to 19 | 20 to 39 | 1 to 19 | 1 to 19 | 1 to 19 | 1 to 19 | 20 to 39 | 1 to 19 | 1 to 19 | 1 to 19 | 1 to 19 | 20 to 39 | control over aphids compared with reference compound 15 (aphids, Myzus persicae; 0.002% concentration): more control; control over caterpillars compared with reference compound 15 ([1]; 0.002% concentration): more control
4 | Cc1cc(C2=NOC(c3cc(Cl)cc(Cl)c3)(C(F)(F)F)C2)ccc1SC1CCNC1=O (stereo not drawn) [Compound 21, 3-[4-[5-(3,5-dichlorophenyl)-5-(trifluoromethyl)-4H-isoxazol-3-yl]-2-methyl-phenyl]sulfanylpyrrolidin-2-one] | 20 to 39 | 1 to 19 | 1 to 19 | 1 to 19 | 1 to 19 | 20 to 39 | 1 to 19 | 1 to 19 | 1 to 19 | 20 to 39 | 1 to 19 | 1 to 19 | 0 | 1 to 19 | 1 to 19 | 1 to 19 | 1 to 19 | 1 to 19 | 1 to 19 | 1 to 19 | 
5 | O=C(Nc1ccc(-c2cccnc2)oc1=O)C1CC1 [Compound 25, N-[2-Oxo-6-(3-pyridyl)pyran-3-yl]cyclopropanecarboxamide, reference compound] |  |  |  |  |  |  |  |  |  |  |  |  |  |  |  |  |  |  |  |  | pest or weed control at 0.003125 % strength (aphids, Myzus persicae; [2]): 1 to 19%; pest or weed control at 0.00625 % strength (aphids, Myzus persicae; [2]): 20 to 39%; pest or weed control at 0.0125 % strength (aphids, Myzus persicae; [2]): 20 to 39%; pest or weed control at 0.025 % strength (aphids, Myzus persicae; [2]): 40 to 59%; pest or weed control at 0.05 % strength (aphids, Myzus persicae; [2]): 1 to 19%; pest or weed control at 0.003125 % strength (aphids, Myzus persicae; [3]): 1 to 19%; pest or weed control at 0.00625 % strength (aphids, Myzus persicae; [3]): 20 to 39%; pest or weed control at 0.0125 % strength (aphids, Myzus persicae; [3]): 20 to 39%; pest or weed control at 0.025 % strength (aphids, Myzus persicae; [3]): 60 to 79%; pest or weed control at 0.05 % strength (aphids, Myzus persicae; [3]): 40 to 59%; pest or weed control at 0.003125 % strength [1, 4]: 0%; pest or weed control at 0.00625 % strength [1, 4]: 1 to 19%; pest or weed control at 0.0125 % strength [1, 4]: 1 to 19%; pest or weed control at 0.025 % strength [1, 4]: 1 to 19%; pest or weed control at 0.05 % strength [1, 4]: 1 to 19%; pest or weed control at 0.003125 % strength [1, 5]: 1 to 19%; pest or weed control at 0.00625 % strength [1, 5]: 1 to 19%; pest or weed control at 0.0125 % strength [1, 5]: 1 to 19%; pest or weed control at 0.025 % strength [1, 5]: 20 to 39%; pest or weed control at 0.05 % strength [1, 5]: 1 to 19%
